Results from patent US20240269238A1, “Therapeutic Regimens and Methods for Reducing Body Weight in a Subject with Fatty Liver Disease using a GLP-1R and GCGR Agonist” (Spitfire Pharma LLC, priority 2022, published 2024).

Assays:
Format in all cases: in vivo, human
[1] = Phase 1b 24-week NAFLD study (Example 3): body weight loss; conditions: for weight loss: Week 24
Source text: (§1) Provided herein is disclosure of a 12-week extension study of the study provided in Example 1, providing a 24-week a Phase 1b, randomized, double-blind, placebo-controlled study to assess the effects of pemvidutide (also termed herein as ALT-801), the safety of pemvidutide and effects on weight loss, hepatic fat fraction, anthropometric parameters, lipid metabolism, as well as inflammatory, fibrosis and other markers in diabetic and non-diabetic (type 2 diabetes) overweight and obese (BMI≥28.0 kg/m^2) subjects with NAFLD (defined as liver fat content (LFC) by MRI-PDFF ≥10%; absence of significant fibrosis, defined as FibroScan® LSM ≤10 kPa), alanine aminotransferase (ALT) and aspartate aminotransferase (AST) laboratory values of ≤75 IU/L and HbA1c <9.5. Men and women aged 18-65 years were studied. Diabetic subjects were defined as those that have undergone stable dose (≥3 months) metformin or SLGT-2 therapy and no use of insulin, sulfonylureas, DPP-4, GLP-1 treatment; Ninety-four (94) subjects were enrolled in the initial 12-week Phase 1b NAFLD trial and 83 subjects who completed were invited to receive a total of 12 additional weeks of blinded treatment. Of those subjects, 66 consented to rollover, of which 64 were eligible to participate.
(§2) The primary endpoint of this study was a reduction in liver fat content (LFC) by MRI-PDFF at Week 24 compared to Week 0 (zero). Key secondary endpoints include percent (%) weight loss at Week 24 compared to Week 0 (zero), and liver inflammation by alanine aminotransferase (ALT) levels and corrected T1 (cT1) imaging at Week 24 as compared to Week 0 (zero). Adverse events (AEs), including serious and severe AEs, AEs leading to discontinuation, GI tolerability, vital signs, and glycemic control including fasting glucose and HbA1c levels were also measured.

[2] = system: liver fat content; test: Phase 1 12-week NAFLD study (Example 1): liver fat content by MRI-PDFF; conditions: for absolute reduction in liver fat (MRI-PDFF): week 12, NAFLD; for relative reduction in liver fat (MRI-PDFF) / proportion of patients with at least 30% reduction in liver fat content / proportion of patients with at least 50% reduction in liver fat content / proportion of patients with normalization in liver fat content (equal or below 5%): week 12
Source text: Provided herein is disclosure of a Phase 1, multicenter, randomized, double-blind, placebo-controlled study to assess the effects of Pemvidutide (also termed herein as ALT-801), the safety of Pemvidutide and effects on hepatic fat fraction, anthropometric parameters, lipid metabolism, inflammatory markers and fibrosis markers in diabetic and non-diabetic (type 2 diabetes) overweight and obese (BMI 28.0 kg/m^2) subjects with NAFLD. This study was designed to assess changes in hepatic fat fraction by MRI-PDFF (magnetic resonance imaging-proton density fat fraction) in diabetic and non-diabetic overweight and obese subjects with NAFLD after 12 weeks of ALT-801 treatment. The trial was conducted without adjunctive diet and exercise interventions. The study assessed changes in body weight, lipid metabolism, metabolic markers, and inflammatory markers and safety and tolerability of ALT-801 after 12 weeks of treatment. Subjects were stratified for the presence or absence of diabetes at baseline. Fibroscan and cT1 assessments evaluated changes in liver inflammatory and fibrotic activity at the end of 12 weeks of treatment.
Overweight and obese volunteers with BMI ≥28 kg/m^2 were studied because this is the typical population of individuals with NAFLD, and these subjects are able to better tolerate the predicted Pharmacodynamics (PD) effect of weight loss and could even benefit from treatment. A hepatic fat fraction of 10% has been typical for the evaluation of hepatic fat fraction in subjects with NAFLD. In other words, individuals with a liver fat fraction of 10% or greater are typically diagnosed with NAFLD. Diabetic subjects that require insulin, sulfonylureas or DDP-4 inhibitors for control of diabetes were excluded in this study. Exclusions were instituted that might otherwise affect an accurate assessment of the effects of ALT-801 on safety or PD. The BMI upper limit is set to 45 kg/m^2 as subjects over this BMI are no likely to fit into the MRI scanner.
The study, described in this example, was carried out in 94 subjects overweight and obese (body mass index [BMI] ≥28.0 kg/m^2) Type 2 diabetic and non-diabetic subjects with nonalcoholic fatty liver disease (NAFLD) over about 4.5 months, including up to a 35-day screening period, and 85-day treatment period and a 25-day follow-up period, with treatment with ALT-801 (a composition comprising SEQ ID NO.: 1, “study medication”) or placebo administered by subcutaneous (SC) injection once weekly for up to twelve (12) doses.
The safety objective of this study was to assess the safety and tolerability of ALT-801 in 18-65 years old subjects with NAFLD (NAFLD without significant fibrosis, defined as FibroScan® controlled attenuation parameter (CAP) ≥280 dB/m and liver stiffness measurement (LSM)<10 kPa (i.e., indicating the absence of significant fibrosis), magnetic resonance imaging derived proton density fat fraction (MRI-PDFF) ≥10%), hemoglobin Alc (HbAlc) of less than 9.5%, and alanine aminotransferase (ALT) or aspartate aminotransferase (AST) values of ≤[…]. The pharmacodynamic (PD) objectives of this study were to evaluate the effects of ALT-801 on hepatic fat fraction, anthropometric parameters, lipid metabolism, metabolic markers, inflammatory markers, fibrosis markers, and lipotoxicity markers. The pharmacokinetic (PK) objectives of this study were to evaluate the effects of ALT-801 and metformin exposure (drug interactions) on the subjects (e.g., ALT-801 and metformin concentrations in blood over time).
After providing informed consent, subjects underwent a screening period of up to 35 days. Subjects were instructed on how to maintain their normal diets, alcohol consumption and physical activities and not to start any new diets, supplements, or exercise programs at any time while participating in the study. […]

[3] = Phase 1b 24-week NAFLD study (Example 3): serum lipids, blood pressure, heart rate, glycemic control
Source text: as §1, §2

With `CC[C@H](C)[C@H](NC(=O)[C@H](Cc1ccccc1)NC(=O)[C@H](CCC(=O)O)NC(=O)[C@@H]1CCCCNC(=O)CC[C@H](NC(=O)[C@H](CC(=O)O)NC(=O)[C@H](CC(C)C)NC(=O)[C@H](Cc2ccc(O)cc2)NC(=O)[C@H](CCCCN)NC(=O)[C@H](CO)NC(=O)[C@H](Cc2ccc(O)cc2)NC(=O)[C@H](CC(=O)O)NC(=O)[C@H](CO)NC(=O)[C@@H](NC(=O)[C@H](Cc2ccccc2)NC(=O)[C@@H](NC(=O)CNC(=O)[C@H](CCC(N)=O)NC(=O)C(C)(C)NC(=O)[C@@H](N)Cc2c[nH]cn2)[C@@H](C)O)[C@H](C)O)C(=O)N[C@@H](CCCCNC(=O)C2O[C@@H](OCCCCCCCCCCCCCCCCCC(=O)O)C(O)C(O)[C@@H]2O)C(=O)N[C@@H](C)C(=O)N[C@@H](C)C(=O)N1)C(=O)N[C@@H](CCC(N)=O)C(=O)N[C@@H](Cc1c[nH]c2ccccc12)C(=O)N[C@@H](CC(C)C)C(=O)N[C@@H](CC(C)C)C(=O)N[C@@H](CCC(N)=O)C(=O)N[C@H](C(N)=O)[C@@H](C)O` (some centres unmarked) [ALT-801, Pemvidutide] the “weight loss (in words)” value ([1]; Week 24 compared to Week 12) was “continued weight loss”, the weight loss ([1]; diabetic subjects) was 5.3% and the weight loss ([1]; non-diabetic subjects) was 7.2%. The “absolute reduction in liver fat (MRI-PDFF)” value (“absolute reduction” below) ([2]; 1.2 mg SC once weekly) was 8.9%, the “relative reduction in liver fat (MRI-PDFF)” value ([2]; 1.2 mg once weekly) was 46.6% and the “proportion of patients with at least 30% reduction in liver fat content” value ([2]; 1.2 mg) was 65 % of patients. The “proportion of patients with at least 50% reduction in liver fat content” value ([2]; 1.2 mg) was “about 40 % of patients”, the “proportion of patients with normalization in liver fat content (equal or below 5%)” value ([2]; 1.2 mg) was 20 % of patients and the “absolute reduction” value ([2]; 1.8 mg SC once weekly) was 14.7%. The “relative reduction in liver fat (MRI-PDFF)” value ([2]; 1.8 mg once weekly) was 68.5%, the “proportion of patients with at least 30% reduction in liver fat content” value ([2]; 1.8 mg) was 94.4 % of patients and the “proportion of patients with at least 50% reduction in liver fat content” value ([2]; 1.8 mg) was 72.2 % of patients. The “proportion of patients with normalization in liver fat content (equal or below 5%)” value ([2]; 1.8 mg) was 55.6 % patients, the “absolute reduction” value ([2]; 2.4 mg SC once weekly (4-week titration)) was 11.3% and the “relative reduction in liver fat (MRI-PDFF)” value ([2]; 2.4 mg once weekly) was 57.1%. The “proportion of patients with at least 30% reduction in liver fat content” value ([2]; 2.4 mg) was 85 % of patients, the “proportion of patients with at least 50% reduction in liver fat content” value ([2]; 2.4 mg) was 70% and the “proportion of patients with normalization in liver fat content (equal or below 5%)” value ([2]; 2.4 mg) was 50.0%. For the same compound, the “relative reductions in liver fat (study conclusion)” value ([2]; 12 weeks) was > 60%, the “systolic blood pressure reduction” value ([3]; 2.4 mg per week, week 24) was “significant” and the “blood pressure and heart rate” value ([3]; all doses, week 24) was “improvements in blood pressure without clinically meaningful increases in heart rate”. The serum lipids ([3]; all doses, week 24) was “improvements in serum lipids” and the “glycemic parameters (fasting glucose and HbA1c)” value ([3]; diabetic patients, all doses, Week 24) was “improvements in glycemic parameters”.
